# In PMC6005271:
# How the values were obtained:
# [1] = Double Williamson ether macrocyclisation of preformed bipyridine precursor with a bis-electrophile, high dilution (previous syntheses); settings: the molecule shown is the open-chain precursor; 25-membered ring; DMF; 72.0 h; cited from earlier work
# [2] = Ni-mediated reductive aryl-aryl (2-halopyridine) homo/cross-coupling forming the 2,2'-bipyridine C-C bond; [Ni(PPh3)2Br2] 1 eq, PPh3 2 eq, Mn 10 eq, NEt4I 1 eq; slow addition of dihalide over 4 h; settings: DMF, 50.0 mM, 50.0 °C
compound,measurement,setting,value
Oc1ccc(-c2cccc(-c3cccc(CCCc4ccc(OCc5ccc(CBr)cc5)cc4)n3)n2)cc1,"ring closure, isolated yield",[1],6%
c1cc2cc(c1)-c1cccc(n1)CCCc1ccc(cc1)OCCCCOc1ccc(cc1)COC2,"ring closure, isolated yield","[2]; from Brc1cccc(CCCc2ccc(OCCCCOc3ccc(COCc4cccc(I)c4)cc3)cc2)n1, 26-membered ring, 5.0 h",24%
c1cc2nc(c1)-c1cccc(n1)-c1ccc(cc1)OCc1ccc(cc1)COc1ccc(cc1)CCC2,"ring closure, isolated yield","[2]; from Brc1cccc(CCCc2ccc(OCc3ccc(COc4ccc(-c5cccc(Br)n5)cc4)cc3)cc2)n1, 25-membered ring, 5.0 h",41%
c1cc2nc(c1)-c1cccc(n1)OCCc1ccc(cc1)OCCCCOc1ccc(cc1)CCO2,"ring closure, isolated yield","[2]; from Brc1cccc(OCCc2ccc(OCCCCOc3ccc(CCOc4cccc(Br)n4)cc3)cc2)n1, 26-membered ring, 5.0 h",65%
c1cc2nc(c1)-c1cccc(n1)CCCc1ccc(cc1)OCCCCOc1ccc(cc1)CCC2 [1a -> 2a],"ring closure, isolated yield","[2]; from Brc1cccc(CCCc2ccc(OCCCCOc3ccc(CCCc4cccc(Br)n4)cc3)cc2)n1, 26-membered ring, 5.0 h",71%
c1cc2nc(c1)-c1cccc(n1)COCc1ccc(cc1)OCCCCOc1ccc(cc1)COC2 [1b -> 2b],"ring closure, isolated yield","[2]; from Brc1cccc(COCc2ccc(OCCCCOc3ccc(COCc4cccc(Br)n4)cc3)cc2)n1, 26-membered ring, 5.0 h",70%
c1cc2nc(c1)-c1cccc(n1)COCc1ccc(cc1)OCCCCCCCCCCOc1ccc(cc1)COC2 [1c -> 2c],"ring closure, isolated yield","[2]; from Brc1cccc(COCc2ccc(OCCCCCCCCCCOc3ccc(COCc4cccc(Br)n4)cc3)cc2)n1, 32-membered ring, 5.0 h",67%
c1cc2nc(c1)-c1cccc(n1)-c1ccc(cc1)OCCOCCOCCOCCOc1ccc-2cc1 [1e -> 2e],"ring closure, isolated yield","[2]; from Brc1cccc(-c2ccc(OCCOCCOCCOCCOc3ccc(-c4cccc(Br)n4)cc3)cc2)n1, 27-membered ring, 5.0 h",73%
c1cc2nc(c1)-c1cccc(n1)COCc1ccc(cc1)OCCCCOc1ccc(cc1)CCC2 [1f -> 2f],"ring closure, isolated yield","[2]; from Brc1cccc(CCCc2ccc(OCCCCOc3ccc(COCc4cccc(Br)n4)cc3)cc2)n1, 26-membered ring, 5.0 h",76%
c1cc2nc(c1)-c1cccc(n1)-c1ccc(cc1)OCCCCCCCOc1ccc(cc1)CCC2 [1g -> 2g (DMF-THF 3:1)],"ring closure, isolated yield","[2]; from Brc1cccc(CCCc2ccc(OCCCCCCCOc3ccc(-c4cccc(Br)n4)cc3)cc2)n1, 26-membered ring, 5.0 h",66%
c1cc2cc(c1)-c1cccc(n1)CCCc1ccc(cc1)OCCCCOc1ccc(cc1)COC2 [1i(Br) dibromo precursor -> 2i],"ring closure, isolated yield","[2]; from Brc1cccc(COCc2ccc(OCCCCOc3ccc(CCCc4cccc(Br)n4)cc3)cc2)c1, 26-membered ring",16%
c1cc2nc(c1)-c1cccc(n1)COCc1ccc(cc1)OCCCCOc1ccc(cc1)COC2 [S4 (dichloro analogue of 1b) -> 2b],"ring closure, isolated yield","[2]; from Clc1cccc(COCc2ccc(OCCCCOc3ccc(COCc4cccc(Cl)n4)cc3)cc2)n1, 26-membered ring",56%
